Measurements as given in ChEMBL document CHEMBL4261633, “Butenolides from a marine-derived fungus Aspergillus terreus with antitumor activities against pancreatic ductal adenocarcinoma cells” (Bioorg Med Chem, 2018).
pIC50: −log10 of the molar value.

Assays:
Format in all cases: functional, cell-based
PANC-1 = assay: Antiproliferative activity against human PANC1 cells after 24 hrs by CCK8 assay; conditions: PANC-1, 24 h
HT-29 = assay: Antiproliferative activity against human HT-29 cells after 24 hrs by CCK8 assay; conditions: HT-29, 24 h
HepG2 = assay: Antiproliferative activity against human HepG2 cells after 24 hrs by CCK8 assay; conditions: HepG2, 24 h
BEAS-2B = assay: Antiproliferative activity against human BEAS2B cells after 24 hrs by CCK8 assay
HCC1806 = assay: Antiproliferative activity against human HCC1806 cells after 24 hrs by CCK8 assay; conditions: HCC1806, 24 h

Row | pIC50 (PANC-1) | pIC50 (HT-29) | pIC50 (HepG2) | pIC50 (HCC1806) | Compound | pIC50 (BEAS-2B)
1 | < 4.70 | < 4.70 | < 4.70 | < 4.70 | COC(=O)[C@]1(Cc2ccc(O)c(CC3OC3(C)C)c2)OC(=O)C(O)=C1c1ccc(O)cc1 (some centres undefined) | < 4.70
2 | < 4.70 | < 4.70 | < 4.70 | < 4.70 | COC(=O)[C@]1(Cc2ccc3c(c2)C[C@H](C(C)(C)O)O3)OC(=O)C(O)=C1c1ccc(O)cc1 [BUTYROLACTONE IV] | < 4.70
3 | < 4.70 | < 4.70 | < 4.70 | < 4.70 | COC(=O)[C@]1(Cc2ccc3c(c2)CCC(C)(C)O3)OC(=O)C(O)=C1c1ccc(O)cc1 | < 4.70
4 | < 4.70 | < 4.70 | < 4.70 | < 4.70 | COC(=O)[C@]1(Cc2ccc(O)c(CC=C(C)C)c2)OC(=O)C(O)=C1c1ccc(O)cc1 | < 4.70
5 | 7.40 |  | 8.05 | 9.00 | CC(=O)O[C@H]1C(=O)[C@@]2(C)[C@H]([C@H](OC(=O)c3ccccc3)[C@]3(O)C[C@H](OC(=O)[C@H](O)[C@@H](NC(=O)c4ccccc4)c4ccccc4)C(C)=C1C3(C)C)[C@]1(OC(C)=O)CO[C@@H]1C[C@@H]2O [PACLITAXEL] | 8.15
6 | < 4.70 | < 4.70 | < 4.70 | < 4.70 | COC(=O)[C@]1(Cc2ccc3c(c2)CC(O)C(C)(C)O3)OC(=O)C(O)=C1c1ccccc1 (some centres undefined) | < 4.70
